Test results published in patent US9783490B2, “Antimicrobial compounds, their synthesis and applications thereof” (The Secretary of State for Health, priority 2012, dated 2017).

Key:
S. aureus (MTCC 737) = test: Minimum Inhibitory Concentration, micro-dilution broth; type: cell-based, Staphylococcus aureus; settings: for Minimum Inhibitory Concentration S. aureus: Drug sensitive bacteria
Description: (§1) Microorganisms and Culture Conditions: Bacterial strains, S. aureus (MTCC 737) and E. coli (MTCC 443) are purchased from MTCC (Chandigarh, India). MRSA (ATCC 33591), Pseudomonas aeruginosa (ATCC 4676), […]-lactamase producing and drug-resistant Klebsiella pneumonia (ATCC700603), Enterococcus faecium (ATCC 19634) and vancomycin resistant Enterococcus faecium (ATCC 51559) are obtained from ATCC (Rockville, Md., USA).
(§2) E. coli is cultured in Luria Bertani broth (10 g of tryptone, 5 g of yeast extract, and 10 g of NaCl in 1000 mL of sterile distilled water (pH −7) while S. aureus, Pseudomonas aeruginosa (ATCC 4676) and MRSA are grown in Yeast-dextrose broth (1 g of beef extract, 2 g of yeast extract, 5 g of peptone and 5 g of NaCl in 1000 mL of sterile distilled water). For all Enterococcus faecium, Brain Heart Infusion broth (BHI) is used. For solid media 5% agar was used along with above mentioned composition. K. pneumonia was grown in nutrient media (3 g of beef extract and 5 g of peptone in 1000 mL of sterile distilled water). The bacterial samples were freeze dried and stored at −80° C. 5 μl of these stocks were added to 3 mL of the nutrient broth and the culture was grown for 6 h at 37° C. prior to the experiments.
(§3) Antibacterial activity is reported as Minimum Inhibitory Concentration (MIC), i.e. the lowest concentration of the antimicrobial agent that will inhibit the growth of a microorganism after overnight incubation. Water-soluble ACK, NCK and BCK series of compounds are assayed in a modified micro-dilution broth format. Stock solutions are made by serially diluting the compounds using autoclaved Millipore water. Bacteria, to be tested are grown for about 6 hrs in the suitable media containing ˜10^9 cfu/mL (determined through dilution plate technique by spread plate method), which is then diluted to 10^5 cfu/mL using nutrient media. 50 μL of serially diluted compound is added to a 96 well plate containing 150 μL bacterial solutions. Two controls are made; one containing 150 μL of media and 50 μL of compound and the other containing 200 μL of bacterial solution. […] MIC value is determined by taking the average of triplicate O.D. values for each concentration and plotting it against concentration using Origin Pro 8.0 software. The data is then subjected to sigmoidal fitting. From the curve, MIC value is determined, as the point in the curve where the O.D. is similar to that of control having no bacteria. The MIC values and errors of independent experiments are reported as average and standard deviation of triplicates.

E. coli (MTCC 443) = test: as above; type: cell-based, Escherichia coli; settings: for Minimum Inhibitory Concentration E. coli: Drug sensitive bacteria
Description: as §1, §2, §3

MRSA (ATCC 33591) = test: as above; type: cell-based, Methicillin resistant S. aureus; settings: for Minimum Inhibitory Concentration MRSA: Drug resistant bacteria
Description: as §1, §2, §3

[1] = test system: drug-resistant Klebsiella pneumonia (ATCC700603); test: as above; type: cell-based; settings: for Minimum Inhibitory Concentration K. pneumonia: Drug resistant bacteria
Description: as §1, §2, §3

[2] = test system: vancomycin resistant Enterococcus faecium (ATCC 51559); test: as above; type: cell-based; settings: for Minimum Inhibitory Concentration VRE: Drug resistant bacteria
Description: as §1, §2, §3

[3] = test system: Pseudomonas aeruginosa (ATCC 4676); test: as above; type: cell-based; settings: for Minimum Inhibitory Concentration P. aeruginosa: Drug sensitive bacteria
Description: as §1, §2, §3

[4] = test system: Enterococcus faecium (ATCC 19634); test: as above; type: cell-based; settings: for Minimum Inhibitory Concentration E. faecium: Drug sensitive bacteria
Description: as §1, §2, §3

human RBCs = test: Haemolytic activity (HC50); type: cell-based; settings: concentration at which 50% of the blood cells are lysed; human RBCs
Description: Erythrocytes are isolated from freshly drawn, heparinized human blood and re-suspended to 5 vol % in PBS (pH 7.4). In a 96-well microtiter plate, 150 μl of erythrocyte suspension is added to 50 μl of serially diluted compound. Two controls are made, one without compound and other with 50 μl of 1 vol % solution of Triton X-100. The plate is incubated for about 1 hr at a temperature of about 37° C. The plate is then centrifuged at 3,500 rpm for about 5 min, 100 μl of the supernatant from each well is transferred to a fresh microtiter plate, and absorbance at 540 nm is measured. Percentage of hemolysis is determined as (A−A0)/(Atotal−A0)×100, where A is the absorbance of the test well, A0 the absorbance of the negative controls (without compound), and A total the absorbance of 100% hemolysis wells (with Triton X-100), when absorbance is read at 540 nm.
Toxicity studies of the compounds are carried out on freshly drawn human RBCs. Toxicity of the antimicrobial compounds of the present disclosure is defined by their HC50 values illustrated in Table 3, i.e. the concentration of compound at which 50% of the blood cells are lysed. Haemolytic studies conducted herein illustrates that the antimicrobial compounds provided by the instant disclosure are selective towards drug sensitive bacteria and drug resistant bacteria over human RBCs, thus establishing the non-toxicity of the present compounds.

Compound | MIC value against S. aureus (S. aureus (MTCC 737)) | Minimum Inhibitory Concentration S. aureus (S. aureus (MTCC 737)) | MIC value against E. coli (E. coli (MTCC 443)) | Minimum Inhibitory Concentration E. coli (E. coli (MTCC 443)) | MIC value against methicillin-resistant S. aureus (MRSA (ATCC 33591)) | Minimum Inhibitory Concentration MRSA (MRSA (ATCC 33591)) | MIC value against K. pneumonia [1] | Minimum Inhibitory Concentration K. pneumonia [1] | MIC value against vancomycin-resistant E. faecium [2] | Minimum Inhibitory Concentration VRE [2] | MIC value against P. aeruginosa [3] | Minimum Inhibitory Concentration P. aeruginosa [3] | MIC value against E. faecium [4] | Minimum Inhibitory Concentration E. faecium [4] | HC50 (human RBCs)
CCCCCCCCN(Cc1cccc2ccccc12)C(=O)C(N)CCCCN.O=C(O)C(F)(F)F (stereo not drawn) [NCK-8, Lys-N-octyl-1-Aminomethylnaphthalene trifluoroacetate] | about 6.3 μg/ml | 6.3 µg/mL | about 5 μg/ml | 5 µg/mL | about 4.4 μg/ml | 4.4 µg/mL | about 13 μg/ml | 13 µg/mL | about 7 μg/ml | 7 µg/mL | ~5.4 µg/mL | 5.4 µg/mL | about 5.5 μg/ml | 5.5 µg/mL | 60 µg/mL
CCCCN(Cc1c2ccccc2c(Cl)c2ccccc12)C(=O)C(N)CCCCN.O=C(O)C(F)(F)F (stereo not drawn) [ACK-4, Lys-N-butyl-10-Aminomethyl-9-chloroanthracene trifluoroacetate] | about 5.3 μg/ml | 5.3 µg/mL | about 4.8 μg/ml | 4.8 µg/mL | about 6.3 μg/ml | 6.3 µg/mL | about 17 μg/ml | 17 µg/mL | about 5.3 μg/ml | 5.3 µg/mL | ~1.9 µg/mL | 1.9 µg/mL | about 4.5 μg/ml | 4.5 µg/mL | 91 µg/mL
CCCCCCCCCCN(Cc1c2ccccc2c(Cl)c2ccccc12)C(=O)[C@@H](N)CCCCN.O=C(O)C(F)(F)F [ACK-10, Lys-N-decyl-10-Aminomethyl-9-chloroanthracene trifluoroacetate] | ~7.1 µg/mL | 7.1 µg/mL |  | 26 µg/mL | ~4.6 µg/mL | 4.6 µg/mL | ~7.6 µg/mL | 7.6 µg/mL | ~5.6 µg/mL | 5.6 µg/mL |  | 11 µg/mL | ~4.9 µg/mL | 4.9 µg/mL | 71 µg/mL
CCN(Cc1c2ccccc2c(Cl)c2ccccc12)C(=O)C(N)CCCCN.O=C(O)C(F)(F)F (stereo not drawn) [ACK-2, Lys-N-ethyl-10-Aminomethyl-9-chloroanthracene trifluoroacetate] |  | 11 µg/mL |  | 25 µg/mL |  | 21 µg/mL |  | 31 µg/mL |  | 7.2 µg/mL | about 4 μg/ml | 4 µg/mL |  | 13.6 µg/mL | 118 µg/mL
CCCCCCCCN(Cc1ccccc1)C(=O)C(N)CCCCN.O=C(O)C(F)(F)F (stereo not drawn) [BCK-8, Lys-N-octyl-1-Aminomethylbenzene trifluoroacetates] |  | 46 µg/mL |  | 51 µg/mL |  | >100 µg/mL |  | >100 µg/mL |  | >100 µg/mL |  | 60 µg/mL |  | 60 µg/mL | 325 µg/mL
CCCCCCCCCCCCN(Cc1ccccc1)C(=O)C(N)CCCCN.O=C(O)C(F)(F)F (stereo not drawn) [BCK-12, Lys-N-dodecyl-1-Aminomethylbenzene trifluoroacetates] | ~2.7 µg/mL | 2.7 µg/mL | ~5 µg/mL | 5 µg/mL | ~2.9 µg/mL | 2.9 µg/mL | ~2.8 µg/mL | 2.8 µg/mL | ~3.3 µg/mL | 3.3 µg/mL | about 4 μg/ml | 4 µg/mL | ~2.6 µg/mL | 2.6 µg/mL | 45 µg/mL
CCCCCCCCCCN(Cc1ccccc1)C(=O)[C@@H](N)CCCCN.O=C(O)C(F)(F)F [BCK-10, Lys-N-decyl-1-Aminomethylbenzene trifluoroacetates] | about 5.7 μg/ml | 5.7 µg/mL | about 6.5 μg/ml | 6.5 µg/mL | about 15.7 μg/ml | 15.7 µg/mL | about 31 μg/ml | 31 µg/mL | about 5.8 μg/ml | 5.8 µg/mL | about 4 μg/ml | 4 µg/mL | about 6.5 μg/ml | 6.5 µg/mL | 95 µg/mL
